Where no end group is shown, it is not given here.
Legend:
cynomolgus monkeys = assay: GLP repeat-dose toxicology, second monkey study No.00213519; assay type: in vivo, Macaca fascicularis
Description: The non-human primate studies were carried out by the Charles River Laboratories (Ashland, OH USA). All the cynomolgus monkeys (Macaca fascicularis of Chinese origin) were obtained from Charles River Laboratories (Houston, TX, USA). In brief, the animals were approximately 2–4 years old and at the body weight between 2.2 and 3.1 kg at the initial dosing. The animals were kept at the temperature between 19°C and 24°C, humidity 30%–70%, and with 12 h light and 12 h dark light cycle. The Good manufacturing practice (GMP)-manufactured vaccine was used in the non-human primate study. […] Similar to mouse and dog dosing preparation, after the emulsion was prepared, a drop test was performed on each time of dosing to confirm that the emulsion had been prepared properly. […] The dose volume was split approximately equally across two different sites; 0.5 ml of the dose was intramuscularly (IM) injected into the right posterior lateral thigh, the left dosing was injected into the left site. All the animals’ body weights were monitored weekly after receiving. After each immunization, the animal body temperature was tested 6 and 24 h post each immunization. […] The animal bleed were collected before each time of immunization to monitor the antibody titers. There were two sets of non-human primate studies conducted. The first set of monkey study No.00213515 had 24 monkeys, 12 males, and 12 females divided into 4 groups: vehicle control, low dose 0.5 mg, medium dose 2 mg, and high dose 5 mg. There were 16 monkeys (8 males and 8 females) in the second set of monkey study No. 00213519. The monkeys in the four groups were vaccinated as follows: vehicle control, low dose 25 μg, medium dose 100 μg, and high dose 250 μg.
In the second set of non-human primate study (#00213519), 16 non-human primates, cynomolgus monkeys, were used. The monkeys were immunized […] at 2-week intervals represented by 1Y, 2Y, 3Y, and 4Y at days 1, 15, 29, and 43, respectively.The bleed were collected at day 1 (pre), day 29 (2Y+2/3Y), day 43 (3Y+2 and 4Y), and day 57 (4Y+2) ( Figure 4C ). There were four groups with 4 monkeys (2 males and 2 females) in each group. Group 1 was the control group, which was treated with only ISA 720 and ddwater. […] The Immunogenicity of peptide-based vaccines in non-human primates was detected by using ELISA to detect antibody titers in the sera of both non-human primate studies ( Figures 4E, F ). The relative high antibody responses have been established in each individual cynomolgus monkey.
A slight increase in anti-APi2568 antibody titers was observed between day 29 and day 43, with no apparent reduction in titers by […].

[1] = biological target: T1, human recombinant protein PD-1 (Homo sapiens, UniProt Q15116); assay: ELISA activity of dog sera with human recombinant protein PD-1; assay type: binding; settings: Figure 3F
T1 construct: His tag; purchased ACROBiosystems PD1-H5221
Description: For the detection of PD-1 human recombinant protein activity, the human recombinant protein PD-1 (PD1-H5221, HIS tag; ACROBiosystems, Newark, DE, USA) 100 μl at the concentration of […] were coated on the 96 wells plate as an antigen. The following procedures were performed as the description of ELISA.
In order to investigate the diversity of the antibody produced by immunized dogs, isotypes IgM, IgA, IgG1, and IgG2 in dogs were detected after being immunized with the peptide vaccine ( Figure 3E ). In MVF-PD-1(92-110) vaccine-treated dogs, the majority of isotype is IgG2, which ranged from 74% to 81%, the IgG1 range from 12% to 18%, IgM from 5% to 9%, and IgA less than 2%. Peptide sera from dogs #1, 2, and 3 were used to detect the antibody activity against human recombinant protein PD-1.

beagle dogs = assay: Safety observations in immunized beagle dogs; assay type: in vivo, dog
Description: In brief, the beagle dogs were purchased from Covance Research Products (Cumberland, VA, USA) and were housed in the Ohio State University Veterinarian Facility Institutional Animal Care Facility. The dogs were housed at 19°C−24°C room temperature with approximately 70% humidity, and 12 h light and 12 h dark–light cycle. The dogs’ body weights were at least 7.5 kg when they received the first immunization. […] The dogs received a total of 4 doses, immunization was done at the rear thigh with two sites of injections, the bleed was collected as indicated time points to monitor the antibody titers, and the body weight of each dog was monitored closely (see Figures 3B, C for detail).
This study was designed to monitor the kinetics of how quickly the antibody levels to MVF-PD-1(92-110) diminished after the dosing was stopped. The recall of an antibody response was also tested after re-challenge. Four beagle dogs were used in this study of MVF-PD-1(92-110) peptide cancer vaccine. Dogs #1, #2, and #3 were treated with MVF-PD-1(92-110) emulsified with nor-MDP and ISA 720 using different doses ( Figure 3A ). Dog#1 was treated with 1.0 mg low-dose peptide, dog#2 was treated with 1.5 mg medium-dose peptide, and dog #3 was treated with 3.0 mg high-dose peptide. The negative control dog #10 was only treated with the MVF peptide emulsified with nor-MDP and Montanide ISA720. Dogs were immunized 4 times designated as 1Y, 2Y, 3Y, and 4Y at Day 0, Day 35, Day 56, and 6 months after primary immunization, respectively. Blood was collected every 2 weeks, except for the first collection, which was 3 weeks after the primary immunization and 1 week after 2Y and 3Y immunization ( Figure 3B ). The sera were used to monitor the antibody titers. We monitored the beagle dogs’ body weight closely during the immunization period ( Figure 3C ).
• a) Beagle dogs were immunized with MVF-PD-1 (92-110) (3 dogs with 1 dog each at the doses of 1, 1.5, and 3 mg/dose). • b) All dogs administered with MVF-PD-1 (92-110) had high polyclonal anti-MVF-PD-1 (92-110) antibody titers. […] These injection site lesions were mostly attributed to the high volume of Montanide ISA 720 VG used in this study.

[2] = 0, 25, 100, 250 µg/dose, days 1, 15, 29, 43, 14-day recovery

T1 sequence (Q15116 25-288): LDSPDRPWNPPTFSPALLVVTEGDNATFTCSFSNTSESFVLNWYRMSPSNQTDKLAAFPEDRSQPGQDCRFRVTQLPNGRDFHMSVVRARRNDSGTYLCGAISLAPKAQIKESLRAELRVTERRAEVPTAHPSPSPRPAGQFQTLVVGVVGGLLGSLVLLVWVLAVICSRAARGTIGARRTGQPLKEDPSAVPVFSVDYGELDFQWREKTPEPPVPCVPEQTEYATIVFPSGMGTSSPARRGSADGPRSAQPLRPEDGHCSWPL

Sequence: KLLSLIKGVIVHRLEGVEGPSLGAISLAPKAQIKESLRAEL [MVF-PD-1(92-110)]
- effects on body weight, food consumption, body temperature, clinical pathology parameters, or organ weight (cynomolgus monkeys; [2]): No APi2568-related adverse effects
- survival (cynomolgus monkeys; [2]): All monkeys survived to the scheduled necropsy
- NOAEL (cynomolgus monkeys; 25, 100, 250 µg/dose IM as PD1-Vaxx, male and female cynomolgus monkeys): 100 µg/dose
- safety (summary) (cynomolgus monkeys; monkey 2nd set): safe
- microscopic finding in the biceps femoris IM injection site (cynomolgus monkeys; single 250 µg/dose group female monkey, 4 doses at 2-week intervals): adverse necrosis
- activity against recombinant PD-1 protein (summary) [1]: high activity against recombinant PD-1 protein
- dogs with adverse local reaction (lesions at or near the IM injection site) (beagle dogs; 1, 1.5 and 3 mg/dose, 1 dog each, lesions resolved within a few weeks after dosing ceased, mostly attributed to high volume of Montanide ISA 720 VG): Two out of three
- body weight by the end of the experiment compared with the initial weight (beagle dogs; all dogs): gained some weight
- induction of autoimmune responses (beagle dogs; beagle dogs): has not been observed
- safety (summary) (beagle dogs; dog): safe

Source: publication PMC9137037 (Frontiers in Oncology, 2022)
